Patent publication US9234231B2, “Screening tool for anti-inflammatory drug discovery comprising the FPR2/ALX gene promoter” (Università degli Studi “G. D'Annunzio” Chieti-Pescara, priority 2011, dated 2016)

Legend:
Assay type in all cases: cell-based, human
FPR2/ALX protein = FPR2/ALX protein expression by flow cytometry in MDA-MB231 cells; settings: 10 μM 5-aza-dC, 72 h, Δ MFI vs untreated cells
FPR2/ALX mRNA = FPR2/ALX mRNA expression by real time PCR in MDA-MB231 cells
FPR2/ALX promoter = experiment: Luciferase reporter gene assay of FPR2/ALX promoter constructs P-1500 and P-346 in MDA-MB231 cells; settings: MDA-MB231 cells transfected 24 h, then exposed 24 h; LXA4 10 nM, dexametasone 1 μM, IFN-γ 5-100 nM, LPS 500 nM; vs vehicle
Protocol: Left panel. MDA-MB231 cells were transfected with P-1500 or P-346. Twenty four hours post-transfection, cells were exposed to ethanol vehicle or 10 nM LXA4 for additional 24 h. Bars depict mean±S.D. of n=4 carried out with duplicates. *, P=0.018; **, P=0.0076 vs vehicle-treated cells. Right panel. MDA-MB231 cells were exposed to LXA4 (10 nM) for the indicated time. FPR2/ALX mRNA was quantitated by real-time PCR. Bars show mean±S.D. of n=3. *, P=0.05.
Having localized the TSS, a 1500 bp fragment of human genomic DNA (−1449/+51 from the TSS) was amplified by PCR, cloned into the promoterless pGL3 vector containing the luciferase reporter gene. For this purpose, Genomic DNA was extracted from the THP1 cells using the Wizard Genomic DNA Purification Kit (Promega, Milan, Italy). Two primers, (For 1500 bp e Rev 1500 bp, Table 1) were designed on the basis of genomic DNA sequence of 5′-flanking region of the FPR2/ALX gene to amplify a section of DNA starting −1449 bp upstream of the identified transcription start site (+1). In addition to the template (100 ng of genomic DNA) and primers For 1500 bp and Rev 1500 bp (100 ng), the reaction mixture contained 0.2 mM dNTPs, Pfu DNA polymerase buffer and 0.05 units of Jumpstart Taq DNA polymerase (Sigma-Aldrich), PCR consisted of 35 cycles of amplification (30 seconds at 94° C., 30 s at 52° C., and 120 seconds at 72° C.). PCR products were recovered from low melting agarose gel and used as template in PCR reactions using primers For 1500 and Rev 1500, added of Kpn I and Xho I restriction sites, respectively (Table 1). PCR products were resolved by 1.5% agarose gel elecrophoresis, purified and ligated into the pGL3-basic reporter vector, which was previously digested with Kpn I and Xho I restriction endonuclease. […] The promoter activity of the construct was analyzed by transfection into MCF7 and MDA-MB231 cells. […] A slightly higher activity was detected in MDA-MB231 cells (18 fold over empty vector) compared to MCF7 cells (14 fold over empty vector). […]

Row | Molecule | increase in FPR2/ALX protein expression (FPR2/ALX protein) | increase in FPR2/ALX mRNA expression (FPR2/ALX mRNA; MDA-MB231 cells, 10 μM 5-aza-dC, 72 h, vs untreated cells) | FPR2/ALX mRNA levels (FPR2/ALX mRNA; MDA-MB231 cells exposed to LXA4 10 nM, real-time PCR) | luciferase activity of P-1500 and P-346 (FPR2/ALX promoter)
1 | Nc1ncn([C@H]2C[C@H](O)[C@@H](CO)O2)c(=O)n1 [5-aza-dC, 5-aza-2′-deoxycytidine] | ~3 fold | ~10 fold |  | 
2 | CCCCCC(O)/C=C/C=C\C=C\C=C\C(O)C(O)CCCC(=O)O (stereo not drawn) [LXA4, 5,6,155-trihydroxy-7,9,11,13-trans-1′-cis-eicosatetraenoic acid] |  |  | enhanced | significantly enhanced
3 | C[C@@H]1C[C@H]2[C@@H]3CCC4=CC(=O)C=C[C@]4(C)[C@@]3(F)[C@@H](O)C[C@]2(C)[C@@]1(O)C(=O)CO [dexametasone] |  |  |  | did not give appreciable changes
4 | IFN-γ: gamma interferon, cytokine |  |  |  | did not give appreciable changes
